Reference: PubChem BioAssay (NCI)
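Briefly, cells in 96-well plates were exposed to five compound concentrations for 48 h, and endpoints were estimated by linear interpolation. GI50 is the concentration that inhibits growth by half. TGI marks complete inhibition of growth.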

Assays:
Test in all cases: inhibition of tumour cell growth, NCI panel, 48 h
[1] = test system: LOX IMVI melanoma
[2] = test system: RXF 393 renal
[3] = test system: UO-31 renal
[4] = test system: OVCAR-5 ovarian
[5] = test system: UACC-257 melanoma
[6] = test system: SK-OV-3 ovarian
[7] = test system: MDA-MB-231 breast
[8] = test system: SNB-75 CNS
[9] = test system: HCC-2998 colon
[10] = test system: K-562 leukemia
[11] = test system: SR leukemia
[12] = test system: HCT-15 colon
[13] = test system: OVCAR-4 ovarian
[14] = test system: CAKI-1 renal
[15] = test system: TK-10 renal
[16] = test system: KM12 colon
[17] = test system: EKVX NSCLC
[18] = test system: COLO 205 colon
[19] = test system: HOP-92 NSCLC
[20] = test system: UACC-62 melanoma
[21] = test system: NCI-H226 lung
[22] = test system: MCF7 breast
[23] = test system: OVCAR-8 ovarian
[24] = test system: HT29 colon
[25] = test system: NCI-H23 lung
[26] = test system: IGROV1 ovarian
[27] = test system: CCRF-CEM leukemia
[28] = test system: HL-60(TB) leukemia
[29] = test system: SF-295 CNS

C#Cc1cccc(Oc2ccc(NC(=O)CCl)cc2)c1
TGI [1]: > 82.5 µM
GI50 [2]: > 82.5 µM
TGI [2]: > 82.5 µM
GI50 [3]: > 82.5 µM
TGI [3]: > 82.5 µM
GI50 [4]: > 82.5 µM
TGI [4]: > 82.5 µM
GI50 [5]: > 82.5 µM
TGI [5]: > 82.5 µM
GI50 [6]: > 82.5 µM
TGI [6]: > 82.5 µM
GI50 [7]: > 82.5 µM
TGI [7]: > 82.5 µM
GI50 [8]: > 82.5 µM
TGI [8]: > 82.5 µM
GI50 [9]: > 82.5 µM
TGI [9]: > 82.5 µM
GI50 [10]: 34.4 µM
TGI [10]: > 82.5 µM
GI50 [11]: 11.5 µM
TGI [11]: > 82.5 µM
GI50 [12]: 6.36 µM
TGI [12]: > 82.5 µM
GI50 [13]: 33.3 µM
TGI [13]: > 82.5 µM
GI50 [14]: > 82.5 µM
TGI [14]: > 82.5 µM
GI50 [15]: > 82.5 µM
TGI [15]: > 82.5 µM
GI50 [16]: > 82.5 µM
TGI [16]: > 82.5 µM
GI50 [17]: > 82.5 µM
TGI [17]: > 82.5 µM
GI50 [18]: 21.2 µM
TGI [18]: 73.3 µM
GI50 [19]: > 82.5 µM
TGI [19]: > 82.5 µM
GI50 [20]: > 82.5 µM
TGI [20]: > 82.5 µM
GI50 [21]: > 82.5 µM
TGI [21]: > 82.5 µM
GI50 [22]: 64.4 µM
TGI [22]: > 82.5 µM
GI50 [23]: 64.3 µM
TGI [23]: > 82.5 µM
GI50 [24]: > 82.5 µM
TGI [24]: > 82.5 µM
GI50 [25]: 48.1 µM
TGI [25]: > 82.5 µM
GI50 [26]: 5.85 µM
TGI [26]: 42.4 µM
GI50 [27]: 5.82 µM
TGI [27]: > 82.5 µM
GI50 [28]: 63.4 µM
TGI [28]: > 82.5 µM
GI50 [29]: > 82.5 µM
TGI [29]: > 82.5 µM
